“And” between values parts separate entries of the source, which are not always exact repeats. Identical values can stand only once.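 Five compound concentrations were applied to cells in 96-well plates for 48 hours; endpoints were derived by simple linear interpolation of the resulting dose-response curve. GI50 marks 50% less growth. TGI: concentration producing complete growth inhibition.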
Columns and labels:
Experiment in all cases: NCI tumour cell line growth inhibition, 48 h
A549 NSCLC = tested on: A549 NSCLC
HCT-15 colon = tested on: HCT-15 colon
HL-60(TB) leukemia = tested on: HL-60(TB) leukemia
HOP-62 NSCLC = tested on: HOP-62 NSCLC
M14 melanoma = tested on: M14 melanoma
RPMI-8226 leukemia = tested on: RPMI-8226 leukemia
SNB-19 CNS = tested on: SNB-19 CNS
SNB-75 CNS = tested on: SNB-75 CNS
UACC-62 melanoma = tested on: UACC-62 melanoma
UO-31 renal = tested on: UO-31 renal

Compound	GI50 (A549 NSCLC)	TGI (A549 NSCLC)	GI50 (HCT-15 colon)	TGI (HCT-15 colon)	GI50 (HL-60(TB) leukemia)	TGI (HL-60(TB) leukemia)	GI50 (HOP-62 NSCLC)	TGI (HOP-62 NSCLC)	GI50 (M14 melanoma)	TGI (M14 melanoma)	GI50 (RPMI-8226 leukemia)	TGI (RPMI-8226 leukemia)	GI50 (SNB-19 CNS)	TGI (SNB-19 CNS)	GI50 (SNB-75 CNS)	TGI (SNB-75 CNS)	GI50 (UACC-62 melanoma)	TGI (UACC-62 melanoma)	GI50 (UO-31 renal)	TGI (UO-31 renal)
CCC(=C(c1ccc(OCCCN(C)C)cc1)c1ccc(OCCCN(C)C)cc1)c1ccc(Cl)cc1	0.601 µM	2.46 µM	0.365 µM	0.864 µM	0.372 µM	0.941 µM	2.31 µM	5.1 µM	0.302 µM	0.577 µM	0.366 µM	0.871 µM	0.921 µM	3.05 µM	1.56 µM	3.89 µM	0.345 µM	0.782 µM	0.269 µM	0.58 µM
COc1ccccc1/C=C/C(=O)/C=C/c1ccccc1O	1.27 µM	3.73 µM	0.351 µM	1.64 µM	0.323 µM	–	3.06 µM	6.63 µM	1.46 µM	3.17 µM	0.164 µM	0.401 µM	1.48 µM	2.94 µM	0.964 µM	2.57 µM	1.16 µM	2.55 µM	0.359 µM	1.61 µM
Cc1ccc(S(=O)(=O)N/N=C(\c2nc3ccc([N+](=O)[O-])cc3[nH]c2=O)C(O)c2ccccc2Cl)cc1 (stereo not given)	–	> 100 µM	–	> 100 µM	–	> 100 µM	–	> 100 µM	–	> 100 µM	–	> 100 µM	–	> 100 µM	–	> 100 µM	–	> 100 µM	–	> 100 µM
O=C1C2=C(c3ccccc31)C(c1ccccc1Cl)N1C(=O)CCSC1=N2 (stereo not given)	–	> 100 µM	–	> 100 µM	–	> 100 µM	–	> 100 µM	–	> 100 µM	–	> 100 µM	–	> 100 µM	–	> 100 µM	–	> 100 µM	–	> 100 µM
Cc1ccc2nc3c(Cl)c(C)c(=O)cc-3sc2c1	–	> 100 µM	34.3 µM	> 100 µM	–	> 100 µM	47.8 µM	> 100 µM	37.7 µM	> 100 µM	–	> 100 µM	> 100 µM	> 100 µM	31.6 µM	> 100 µM	27.8 µM	> 1 µM and 92.2 µM	–	> 100 µM
CCOC(=O)c1ccc(N[C@@H]2c3cc4c(cc3C(C3=CC(=O)C(=O)C(OC)=C3)[C@H]3C(=O)OCC32)OCO4)cc1 (stereo not given in full)	–	5.67 µM	–	7.82 µM	–	> 19.7 µM	–	1.66 µM	–	9.96 µM	–	66.8 µM	–	42 µM	–	9.04 µM	–	7.69 µM	–	9.43 µM
CCN(CC)CCNC(=O)c1c(C)[nH]c(/C=C2\C(=O)Nc3ccc(F)cc32)c1C	5.52 µM and 2.97 µM and 3.85 µM	> 10 µM and 6.44 µM and 17.6 µM	1.22 µM and 1.23 µM and 1.13 µM	> 10 µM and 20 µM and 13.3 µM	0.353 µM and 2.42 µM and 0.847 µM	4.34 µM and 6.34 µM and 4.13 µM	5.27 µM and 2.42 µM and 2.64 µM	> 10 µM and 5.94 µM and 15.3 µM	0.574 µM and 1.03 µM and 0.687 µM	2.33 µM and 3.56 µM and 2.23 µM	2.93 µM and 4.58 µM and 1.46 µM	> 10 µM and 10.9 µM and 5.31 µM	> 10 µM and 5.36 µM and 11.4 µM	> 10 µM and 16.3 µM and 25.6 µM	4.61 µM and 2.11 µM and 4.33 µM	> 10 µM and 4.55 µM and 14 µM	> 10 µM and 3.26 µM and 4.12 µM	> 10 µM and 6.98 µM and 10.9 µM	0.629 µM and 1.26 µM and 1.29 µM	> 10 µM and 4.59 µM and 8.07 µM
C=C1CC2(OC1=O)C(=O)N(CCCN1C(=O)C3(CC(=C)C(=O)O3)c3ccccc31)c1ccccc12 (stereo not given)	10.4 µM	24 µM	0.956 µM	2.55 µM	0.831 µM	2.85 µM	7.34 µM	21.8 µM	1.68 µM	3.67 µM	0.579 µM	2.78 µM	13.3 µM	26.2 µM	3.44 µM	26.8 µM	1.54 µM	3.11 µM	1.53 µM	2.97 µM
O=C(/C=C/c1ccccc1)CC(c1ccccc1)N1CCOCC1 (stereo not given)	11.7 µM	29 µM	1.96 µM	5.52 µM	3.68 µM	18.1 µM	3.25 µM	11.9 µM	1.79 µM	3.41 µM	1.98 µM	5.21 µM	9.8 µM	21.9 µM	12.5 µM	27.7 µM	9.07 µM	21.8 µM	1.58 µM	3.24 µM
N=S(c1ccccc1)c1ccccc1[N+](=O)[O-] (stereo not given)	–	32.1 µM	–	30.4 µM	–	36.5 µM	–	52.6 µM	–	27.7 µM	–	54.6 µM	–	35.2 µM	–	95.1 µM	–	36.2 µM	–	29.5 µM
Cc1nc(Nc2n[nH]c3c2CN(C(=O)N[C@H](CN(C)C)c2ccccc2)C3(C)C)c2sccc2n1	0.0911 µM and 0.291 µM	> 50.9 µM	0.687 µM and 1.26 µM	> 10 µM and 68.5 µM	0.0189 µM and 0.0564 µM	2.03 µM and 3.43 µM	0.0724 µM and 0.129 µM	5.12 µM and 7.06 µM	0.0586 µM and 0.103 µM	> 3.22 µM and 8.37 µM	0.148 µM and 0.107 µM	> 4.74 µM and 5.69 µM	0.0575 µM and 0.0546 µM	> 6.54 µM and 3.75 µM	0.206 µM and 0.284 µM	2.23 µM and 2.82 µM	0.00487 µM and < 0.01 µM	0.154 µM	0.229 µM and 1.28 µM	> 4.67 µM and 42.3 µM
CCN(CC)CC(=O)N1CCc2c([nH]c3ccccc23)C1c1cccnc1 (stereo not given)	–	> 100 µM	–	> 100 µM	–	> 100 µM	–	> 100 µM	–	> 100 µM	–	> 100 µM	–	> 100 µM	–	> 100 µM	–	> 100 µM	–	> 100 µM
CCOC1Oc2ccccc2-c2oc(=O)c(Sc3ccc(C)cc3)cc21 (stereo not given)	19.3 µM	59 µM	27.6 µM	> 100 µM	8.98 µM	60.5 µM	58.5 µM	> 100 µM	48.2 µM	> 100 µM	9.66 µM	35.5 µM	29.1 µM	> 100 µM	32.6 µM	> 100 µM	17.9 µM	> 100 µM	16.4 µM	> 100 µM
CC(=O)[CH-]C(C)=O.[CH2-]C.[CH2-]C.[Tl+3]	> 100 µM	> 100 µM	> 100 µM	> 100 µM	> 100 µM	> 100 µM	> 100 µM	> 100 µM	> 100 µM	> 100 µM	> 100 µM	> 100 µM	> 100 µM	> 100 µM	> 100 µM	> 100 µM	> 100 µM	> 100 µM	> 100 µM	> 100 µM
